Data: PMC11562016 (Structure (London, England : 1993), 2024)
Values joined by “and” are separate entries in the source; they are usually repeats but may differ in a detail not shown here. Equal values may be shown once. Read-outs that look alike come from different tables or passages of the source.

Columns and labels:
α1F207A:α1-β GlyR = α1F207A:α1-β GlyR (Homo sapiens, UniProt P23415+P48167, F235A)
α1sβsg GlyR = details: for τdes: desensitization
[1] = molecular target: α1:α1-β-α1 FYF (α1: α1F207A-βY231A-α1F207A) GlyR (Homo sapiens, UniProt P23415+P48167, F235A/Y253A)
[2] = molecular target: α1:α1-β-α1 RFYF (α1: α1R65DF207A-βY231A-α1F207A) GlyR (Homo sapiens, UniProt P23415+P48167, F235A/R93D/Y253A)
[3] = tested on: α1β GlyR with mutation of a single α-α or α-β site; details: Supplementary Fig.S4
α1:βR86TY231A GlyR = α1:βR86TY231A GlyR (Homo sapiens, UniProt P23415+P48167, R108T/Y253A)
α1:βY231A GlyR = α1:βY231A GlyR (Homo sapiens, UniProt P23415+P48167, Y253A)
α1F207A:β GlyR = α1F207A:β GlyR (Homo sapiens, UniProt P23415+P48167, F235A)
[4] = molecular target: human α1β GlyR (α1:β, α1wtβwt) (Homo sapiens, UniProt P23415+P48167); details: for τdes: desensitization
α1F207A:α1-β-α1 GlyR = α1F207A:α1-β-α1 GlyR (Homo sapiens, UniProt P23415+P48167, F235A)
[5] = glycine dose-response, Hill fit

Chain of human α1β GlyR (α1:β, α1wtβwt) (P23415 29-457): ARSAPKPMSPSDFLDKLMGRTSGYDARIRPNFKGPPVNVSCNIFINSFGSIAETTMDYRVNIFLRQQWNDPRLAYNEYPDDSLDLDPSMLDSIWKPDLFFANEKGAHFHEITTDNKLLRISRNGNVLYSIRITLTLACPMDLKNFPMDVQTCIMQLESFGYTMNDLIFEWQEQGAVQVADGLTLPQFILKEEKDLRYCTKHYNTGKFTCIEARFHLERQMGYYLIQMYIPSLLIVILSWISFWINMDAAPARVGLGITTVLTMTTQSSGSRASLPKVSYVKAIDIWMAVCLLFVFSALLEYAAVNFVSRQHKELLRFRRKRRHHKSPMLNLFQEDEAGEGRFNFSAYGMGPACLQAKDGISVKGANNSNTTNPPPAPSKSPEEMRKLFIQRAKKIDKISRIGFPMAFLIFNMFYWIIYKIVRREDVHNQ
Chain of human α1β GlyR (α1:β, α1wtβwt) (P48167 23-497): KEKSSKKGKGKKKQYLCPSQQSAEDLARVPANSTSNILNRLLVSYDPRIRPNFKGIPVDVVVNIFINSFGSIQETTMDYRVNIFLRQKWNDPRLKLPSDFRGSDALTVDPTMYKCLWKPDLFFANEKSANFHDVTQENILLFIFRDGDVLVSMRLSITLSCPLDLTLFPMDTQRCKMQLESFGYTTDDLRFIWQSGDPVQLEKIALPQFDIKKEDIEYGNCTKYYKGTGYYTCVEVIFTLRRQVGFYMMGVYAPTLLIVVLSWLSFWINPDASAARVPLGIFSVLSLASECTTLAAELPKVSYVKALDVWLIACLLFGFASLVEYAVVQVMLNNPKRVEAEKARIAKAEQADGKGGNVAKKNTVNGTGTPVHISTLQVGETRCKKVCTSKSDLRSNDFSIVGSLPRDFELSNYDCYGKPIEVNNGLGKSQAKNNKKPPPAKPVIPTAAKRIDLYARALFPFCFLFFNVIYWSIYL
Chain of α1:α1-β-α1 RFYF (α1: α1R65DF207A-βY231A-α1F207A) GlyR (P23415 29-457, stated change not applied): as the sequence (P23415 29-457) above
Chain of α1:α1-β-α1 RFYF (α1: α1R65DF207A-βY231A-α1F207A) GlyR (P23415 29-457 R93D/F235A): as the sequence (P23415 29-457) above, with R65D, F207A counted along it
Chain of α1:α1-β-α1 RFYF (α1: α1R65DF207A-βY231A-α1F207A) GlyR (P48167 23-497 Y253A): as the sequence (P48167 23-497) above, with Y231A counted along it
Chain of α1:α1-β-α1 RFYF (α1: α1R65DF207A-βY231A-α1F207A) GlyR (P23415 29-457 F235A): as the sequence (P23415 29-457) above, with F207A counted along it
Chain of α1:βR86TY231A GlyR (P23415 29-457): as the sequence (P23415 29-457) above
Chain of α1:βR86TY231A GlyR (P48167 23-497 R108T/Y253A): as the sequence (P48167 23-497) above, with R86T, Y231A counted along it
Chain of α1:βY231A GlyR (P23415 29-457): as the sequence (P23415 29-457) above
Chain of α1:βY231A GlyR (P48167 23-497 Y253A): as the sequence (P48167 23-497) above, with Y231A counted along it
Chain of α1:α1-β-α1 FYF (α1: α1F207A-βY231A-α1F207A) GlyR (P23415 29-457, stated change not applied): as the sequence (P23415 29-457) above
Chain of α1:α1-β-α1 FYF (α1: α1F207A-βY231A-α1F207A) GlyR (P23415 29-457 F235A): as the sequence (P23415 29-457) above, with F207A counted along it
Chain of α1:α1-β-α1 FYF (α1: α1F207A-βY231A-α1F207A) GlyR (P48167 23-497 Y253A): as the sequence (P48167 23-497) above, with Y231A counted along it
Chain of α1:α1-β-α1 FYF (α1: α1F207A-βY231A-α1F207A) GlyR (P23415 29-457 F235A): as the sequence (P23415 29-457) above, with F207A counted along it
Chain of α1F207A:β GlyR (P23415 29-457 F235A): as the sequence (P23415 29-457) above, with F207A counted along it
Chain of α1F207A:β GlyR (P48167 23-497): as the sequence (P48167 23-497) above
Chain of α1F207A:α1-β GlyR (P23415 29-457 F235A): as the sequence (P23415 29-457) above, with F207A counted along it
Chain of α1F207A:α1-β GlyR (P23415 29-457, stated change not applied): as the sequence (P23415 29-457) above
Chain of α1F207A:α1-β GlyR (P48167 23-497): as the sequence (P48167 23-497) above
Chain of α1F207A:α1-β-α1 GlyR (P23415 29-457 F235A): as the sequence (P23415 29-457) above, with F207A counted along it
Chain of α1F207A:α1-β-α1 GlyR (P23415 29-457, stated change not applied): as the sequence (P23415 29-457) above
Chain of α1F207A:α1-β-α1 GlyR (P48167 23-497): as the sequence (P48167 23-497) above
Chain of α1F207A:α1-β-α1 GlyR (P23415 29-457, stated change not applied): as the sequence (P23415 29-457) above

NCC(=O)O [glycine, Glycine]
Imax, maximum glycine-induced current amplitude (α1F207A:α1-β GlyR): 0.2 ± 0.1 nA | nh (Hill coefficent) (α1F207A:α1-β GlyR; [5]): 1.0 ± 0.6 | I des / Imax (α1sβsg GlyR; 40 μM glycine): 0.74 ± 0.05 | τclose (α1sβsg GlyR; 40 μM glycine): 0.4 ± 0.1 s | τopen (α1sβsg GlyR; 40 μM glycine): 0.9 ± 0.1 s | τdes (α1sβsg GlyR; 40 μM glycine): 5.4 ± 1.2 s | I des / Imax (α1sβsg GlyR; 100 μM glycine): 0.38 ± 0.05 | τclose (α1sβsg GlyR; 100 μM glycine): 0.5 ± 0.1 s | τopen (α1sβsg GlyR; 100 μM glycine): 0.5 ± 0.1 s | τdes (α1sβsg GlyR; 100 μM glycine): 7.0 ± 1.3 s | I des / Imax (α1sβsg GlyR; 1000 μM glycine): 0.17 ± 0.03 | τclose (α1sβsg GlyR; 1000 μM glycine): 0.9 ± 0.3 s | τopen (α1sβsg GlyR; 1000 μM glycine): 0.06 ± 0.01 s | τdes (α1sβsg GlyR; 1000 μM glycine): 8.8 ± 1.8 s | EC50 (α1sβsg GlyR; glycine response normalized to 1 mM glycine): ~100 µM | Imax, maximum glycine-induced current amplitude [1]: 4.5 ± 0.7 nA | nh (Hill coefficent) [1, 5]: 2.2 ± 0.4 | Imax, maximum glycine-induced current amplitude [2]: 0.8 ± 0.3 nA | nh (Hill coefficent) [2, 5]: 1.6 ± 2.0 | channel activation by glycine ([2]; only 1 intact glycine site): inactive | EC50 [3]: ~140 µM | Imax, maximum glycine-induced current amplitude (α1:βR86TY231A GlyR): 7.1 ± 0.5 nA | nh (Hill coefficent) (α1:βR86TY231A GlyR; [5]): 2.1 ± 0.3 | Imax, maximum glycine-induced current amplitude (α1:βY231A GlyR): 5.0 ± 0.7 nA | nh (Hill coefficent) (α1:βY231A GlyR; [5]): 3.1 ± 0.5 | desensitization forward rate constant kdes (α1β GlyR; model parameter): 0.18 ± 0.05 and 0.18 | desensitization reverse rate constant kdes_r (α1β GlyR; model parameter): 0.007 ± 0.002 and 0.007 | rate scaler after desensitization ndes (α1β GlyR; model parameter): 0.006 ± 0.007 and 0.006 | dissociation rate constants kdα = kdβ (α1β GlyR; model parameter matched to full recording traces): 10 ± 2 | Imax, maximum glycine-induced current amplitude (α1F207A:β GlyR): 0.8 ± 0.2 nA | nh (Hill coefficent) (α1F207A:β GlyR; [5]): 1.4 ± 1.5 | current remaining after desensitization ([4]; 40 μM glycine): ~ 66% | τclose ([4]; 40 μM glycine): 0.3 ± 0.1 s | τopen ([4]; 40 μM glycine): 0.6 ± 0.3 s | τdes ([4]; 40 μM glycine): 4.8 ± 0.9 s | τclose ([4]; 100 μM glycine): 0.3 ± 0.1 s | τopen ([4]; 100 μM glycine): 0.18 ± 0.03 s | τdes ([4]; 100 μM glycine): 7.5 ± 1.2 s | τclose ([4]; 200 μM glycine): 1.1 ± 0.1 s | τopen ([4]; 200 μM glycine): 0.07 ± 0.01 s | τdes ([4]; 200 μM glycine): 7.8 ± 0.6 s | current remaining after desensitization ([4]; 1 mM glycine): ~ 18% | τclose ([4]; 1000 μM glycine): 1.0 ± 0.1 s | τopen ([4]; 1000 μM glycine): 0.06 ± 0.01 s | τdes ([4]; 1000 μM glycine): 6.5 ± 0.4 s | increase in desensitization recovery time constant ([4]; 1 mM vs 40 μM glycine): ~ 7 fold | increase in the extent of desensitization ([4]; 1 mM vs 40 μM glycine): ~ 4 fold | current remaining after desensitization (residual activity) ([4]; 10 mM glycine): ~ 3% | desensitization time constants ([4]; across glycine concentrations 40 μM to 10 mM): 5 to 8 s | τclose ([4]; beyond 200 μM glycine): ~ 1.1 s | nh (Hill coefficent) [4, 5]: 2.5 ± 0.4 | minimum τopen ([4]; increased glycine concentrations, likely limited by instrument): 60 ms | Imax, maximum glycine-induced current amplitude ([4]; whole-cell, -70 mV): 7.0 ± 0.9 nA | Imax, maximum glycine-induced current amplitude (α1F207A:α1-β-α1 GlyR): 0.5 ± 0.1 nA | nh (Hill coefficent) (α1F207A:α1-β-α1 GlyR; [5]): 1.8 ± 3.3
